These results are taken from patent US20100130522A1, “COMPOUNDS FOR INFLAMMATION AND IMMUNE-RELATED USES” (Synta Pharmaceuticals Corp., priority 2008, published 2010).

For this assay, the system named is IL-2 production, Jurkat cells. The assay can be described thus: Inhibition of IL-2 production in PHA-activated Jurkat cells (ELISA). Format: cell-based. As to conditions: Homo sapiens, 1% FBS, numeric values. On the procedure: Jurkat cells were placed in a 96 well plate (0.5 million cells per well in 1% FBS medium), and then a test compound of this invention was added at different concentrations. After 10 minutes, the cells were activated with PHA (final concentration 2.5 μg/mL) and incubated for 20 hours at 37° C. under 5% CO2. The final volume was 200 μL. Following incubation, the cells were centrifuged, and the supernatants collected and stored at −70° C. prior to assaying for IL-2 production. A commercial ELISA kit (IL-2 Eli-pair, Diaclone Research, Besancon, France) was used to detect production of IL-2, from which dose response curves were obtained. The IC50 value was calculated as the concentration at which 50% of maximum IL-2 production after stimulation was inhibited versus a non-stimulation control.
(ELISA stands for enzyme-linked immunosorbent assay.)

As a reminder, the IC50 is the concentration needed to halve the response being measured. The low end stands for greater potency in that assay, the high end for weaker potency in that assay. For `Cc1ccc(Oc2ccccn2)cc1-c1ccc(NC(=O)c2cccc(F)c2C)nc1` [Compound 33, 3-fluoro-2-methyl-N-(5-(2-methyl-5-(pyridin-2-yloxy)phenyl)pyridin-2-yl)benzamide], inhibition was half-maximal at 90 nM (IC50). Next, `Cc1ccc(Oc2ccccn2)cc1-c1ccc(NC(=O)c2ccncc2F)nc1` [Compound 35, 3-fluoro-N-(5-(2-methyl-5-(pyridin-2-yloxy)phenyl)pyridin-2-yl)isonicotinamide]: 16 nM; `Cc1ccc(Oc2ccccn2)cc1-c1cnc(NC(=O)c2c(F)cccc2F)cn1` [Compound 32, 2,6-difluoro-N-(5-(2-methyl-5-(pyridin-2-yloxy)phenyl)pyrazin-2-yl)benzamide]: 27 nM.

Turning to `Cc1c(F)cccc1C(=O)Nc1ccc(-c2cc(Oc3cccnc3)ccc2C(F)(F)F)cn1` [Compound 41, 3-fluoro-2-methyl-N-(5-(5-(pyridin-3-yloxy)-2-(trifluoromethyl)phenyl)pyridin-2-yl)benzamide], the IC50 was found to be 47 nM. The value for `Cc1ccc(Oc2ccncc2)cc1-c1ccc(NC(=O)c2cccc(F)c2C)nc1` [Compound 40, 3-fluoro-2-methyl-N-(5-(2-methyl-5-(pyridin-4-yloxy)phenyl)pyridin-2-yl)benzamide] was 39 nM. Next, `Cc1cc(Oc2cccnc2)ncc1-c1ccc(NC(=O)c2cccc(F)c2C)nc1` [Compound 34, 3-fluoro-2-methyl-N-(4′-methyl-6′-(pyridin-3-yloxy)-3,3′-bipyridin-6-yl)benzamide]: 14 nM; `COc1ccc(Oc2ccccn2)cc1-c1ccc(NC(=O)c2cccc(F)c2C)nc1` [Compound 38, 3-fluoro-N-(5-(2-methoxy-5-(pyridin-2-yloxy)phenyl)pyridin-2-yl)-2-methylbenzamide]: 21 nM; `O=C(Nc1cnc(-c2cc(Oc3ccccn3)ccc2Cl)cn1)c1c(F)cccc1F` [Compound 36, N-(5-(2-chloro-5-(pyridin-2-yloxy)phenyl)pyrazin-2-yl)-2,6-difluorobenzamide]: 16 nM. Next, `COc1ccc(Oc2ccccn2)cc1-c1cnc(NC(=O)c2c(F)cccc2F)cn1` [Compound 39, 2,6-difluoro-N-(5-(2-methoxy-5-(pyridin-2-yloxy)phenyl)pyrazin-2-yl)benzamide]: 25 nM.
